Assay results taken from ChEMBL document CHEMBL5579820, “New insights into butyrylcholinesterase: Pharmaceutical applications, selective inhibitors and multitarget-directed ligands” (Eur J Med Chem, 2024).

Legend:
[1] = molecular target: T1, Cholinesterase (Homo sapiens, UniProt P06276)
[2] = molecular target: T2, Acetylcholinesterase (Homo sapiens, UniProt P22303)
[3] = molecular target: T1, Cholinesterase; assay: Inhibition of human BChE using butyrylthiocholine as substrate by Ellman's method
[4] = Selectivity index, ratio of IC50 for human AChE to IC50 for equine BChE using butyrylthiocholine as substrate
[5] = molecular target: T3, Cholinesterase (Equus caballus, UniProt P81908); assay: Inhibition of equine BuChE
[6] = molecular target: T4, Acetylcholinesterase (Electrophorus electricus, UniProt O42275); assay: Inhibition of electric eel AChE
[7] = molecular target: T1, Cholinesterase; assay: Inhibition of human BChE using butyrylthiocholineiodide as substrate at 10 uM by Ellman's method relative to control
[8] = molecular target: T2, Acetylcholinesterase; assay: Inhibition of human AChE by Ellman's method
[9] = molecular target: T5, Protein deacetylase HDAC6 (Homo sapiens, UniProt Q9UBN7); assay: Inhibition of HDAC6 (unknown origin)
T5 sequence (Q9UBN7 whole entry): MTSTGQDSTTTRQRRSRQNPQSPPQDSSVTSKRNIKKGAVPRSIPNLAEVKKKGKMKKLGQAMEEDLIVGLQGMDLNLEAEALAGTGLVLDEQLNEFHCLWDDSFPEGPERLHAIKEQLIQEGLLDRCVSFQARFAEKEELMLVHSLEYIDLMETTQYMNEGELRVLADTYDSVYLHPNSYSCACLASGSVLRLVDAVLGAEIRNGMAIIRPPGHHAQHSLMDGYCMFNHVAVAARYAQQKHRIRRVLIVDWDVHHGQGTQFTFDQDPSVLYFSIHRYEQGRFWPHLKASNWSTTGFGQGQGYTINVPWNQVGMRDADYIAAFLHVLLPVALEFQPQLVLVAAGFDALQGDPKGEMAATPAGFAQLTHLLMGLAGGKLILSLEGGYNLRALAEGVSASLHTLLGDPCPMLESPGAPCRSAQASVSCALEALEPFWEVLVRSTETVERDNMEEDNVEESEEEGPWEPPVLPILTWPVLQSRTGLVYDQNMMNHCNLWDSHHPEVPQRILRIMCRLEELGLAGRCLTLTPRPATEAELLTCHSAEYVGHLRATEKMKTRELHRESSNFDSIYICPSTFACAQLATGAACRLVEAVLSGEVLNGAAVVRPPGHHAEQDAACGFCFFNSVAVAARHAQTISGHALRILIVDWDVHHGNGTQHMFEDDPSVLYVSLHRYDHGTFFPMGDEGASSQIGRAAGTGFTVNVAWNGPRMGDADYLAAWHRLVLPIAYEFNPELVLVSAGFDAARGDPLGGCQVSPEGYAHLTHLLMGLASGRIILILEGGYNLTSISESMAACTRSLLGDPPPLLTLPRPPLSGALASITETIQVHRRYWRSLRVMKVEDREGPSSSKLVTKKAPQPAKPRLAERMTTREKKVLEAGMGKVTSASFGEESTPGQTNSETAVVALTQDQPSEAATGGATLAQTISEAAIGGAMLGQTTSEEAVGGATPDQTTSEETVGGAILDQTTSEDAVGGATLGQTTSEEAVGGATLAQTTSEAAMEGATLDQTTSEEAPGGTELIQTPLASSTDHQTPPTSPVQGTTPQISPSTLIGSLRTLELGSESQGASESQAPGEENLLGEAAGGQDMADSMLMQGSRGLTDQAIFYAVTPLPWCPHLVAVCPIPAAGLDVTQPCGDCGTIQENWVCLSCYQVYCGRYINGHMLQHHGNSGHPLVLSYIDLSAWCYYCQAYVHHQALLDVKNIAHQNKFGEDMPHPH

[10] = molecular target: T1, Cholinesterase; assay: Inhibition of human BChE using butyrylthiocholine iodide as substrate preincubated for 15 min followed by substrate addition measured after 40 min by Ellman's method
[11] = molecular target: T2, Acetylcholinesterase; assay: Inhibition of human AChE using acetylthiocholine iodide as substrate after 15 mins by Ellman's method
[12] = molecular target: T1, Cholinesterase; assay: Inhibition of BChE (unknown origin)
[13] = molecular target: Cholinesterases; ACHE & BCHE (Homo sapiens) (UniProt P06276+P22303); assay: Selectivity index, ratio of IC50 for inhibition of human AChE to IC50 for inhibition of human BChE; assay type: protein assay
[14] = molecular target: T6, Amine oxidase [flavin-containing] A (Homo sapiens, UniProt P21397); assay: Inhibition of human recombinant MAO-A using kynuramine as substrate by incubated for 75 mins by spectrophotometric analysis
T6 sequence (P21397 whole entry): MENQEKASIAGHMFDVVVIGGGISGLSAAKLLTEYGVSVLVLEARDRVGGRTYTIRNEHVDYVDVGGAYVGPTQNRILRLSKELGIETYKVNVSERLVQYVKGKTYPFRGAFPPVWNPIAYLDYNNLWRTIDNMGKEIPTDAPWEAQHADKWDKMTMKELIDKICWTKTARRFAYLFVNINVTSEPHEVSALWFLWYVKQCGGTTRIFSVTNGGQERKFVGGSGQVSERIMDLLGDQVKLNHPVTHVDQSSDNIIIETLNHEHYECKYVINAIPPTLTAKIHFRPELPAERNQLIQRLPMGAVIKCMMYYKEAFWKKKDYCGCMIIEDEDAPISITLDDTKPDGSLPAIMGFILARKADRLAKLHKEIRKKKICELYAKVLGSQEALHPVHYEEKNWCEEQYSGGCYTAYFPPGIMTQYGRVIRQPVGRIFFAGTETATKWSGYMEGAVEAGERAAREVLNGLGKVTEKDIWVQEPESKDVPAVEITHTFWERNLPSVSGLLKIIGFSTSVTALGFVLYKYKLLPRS

[15] = molecular target: T7, Amine oxidase [flavin-containing] B (Homo sapiens, UniProt P27338); assay: Inhibition of human recombinant MAO-B using benzylamine as substrate by fluorescence based analysis
T7 sequence (P27338 whole entry): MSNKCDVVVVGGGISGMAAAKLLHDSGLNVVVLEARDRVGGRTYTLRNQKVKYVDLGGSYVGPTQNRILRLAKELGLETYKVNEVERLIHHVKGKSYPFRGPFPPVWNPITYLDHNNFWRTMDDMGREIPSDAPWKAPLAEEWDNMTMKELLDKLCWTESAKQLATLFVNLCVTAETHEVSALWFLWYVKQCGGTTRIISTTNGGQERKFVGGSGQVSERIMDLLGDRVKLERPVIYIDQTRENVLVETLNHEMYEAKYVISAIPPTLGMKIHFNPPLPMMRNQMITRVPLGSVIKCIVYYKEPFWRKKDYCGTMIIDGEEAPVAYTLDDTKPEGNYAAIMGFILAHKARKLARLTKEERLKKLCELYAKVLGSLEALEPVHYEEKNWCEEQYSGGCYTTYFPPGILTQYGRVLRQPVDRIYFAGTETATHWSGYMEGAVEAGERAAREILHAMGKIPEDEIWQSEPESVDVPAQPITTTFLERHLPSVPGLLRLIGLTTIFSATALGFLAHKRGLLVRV

[16] = Inhibition of equine serum BChE using butyrylthiocholine iodide as substrate by measured after 30 mins Ellman's method; assay type: cell-free, Equus caballus
[17] = molecular target: T3, Cholinesterase; assay: Inhibition of equine serum BuChE using butyrylthiocholine iodide as substrate preincubated for 60 mins followed by susbtrate addition by Ellaman"s method; assay type: cell-free
[18] = molecular target: T4, Acetylcholinesterase; assay: Inhibition of electric eel AChE using acetylthiocholine iodide as substrate after 60 mins by Ellman's method
[19] = molecular target: T3, Cholinesterase; assay: Inhibition of equine serum BuChE by Ellman's method
[20] = molecular target: T4, Acetylcholinesterase; assay: Inhibition of Electric eel AChE using […] as substrate by spectrophotometry based Ellman's method
[21] = Inhibition of equine serum BChE using butyrylthiocholine iodide as substrate by Ellman's method; set-up: species or system Equus caballus

T1 sequence (P06276 whole entry): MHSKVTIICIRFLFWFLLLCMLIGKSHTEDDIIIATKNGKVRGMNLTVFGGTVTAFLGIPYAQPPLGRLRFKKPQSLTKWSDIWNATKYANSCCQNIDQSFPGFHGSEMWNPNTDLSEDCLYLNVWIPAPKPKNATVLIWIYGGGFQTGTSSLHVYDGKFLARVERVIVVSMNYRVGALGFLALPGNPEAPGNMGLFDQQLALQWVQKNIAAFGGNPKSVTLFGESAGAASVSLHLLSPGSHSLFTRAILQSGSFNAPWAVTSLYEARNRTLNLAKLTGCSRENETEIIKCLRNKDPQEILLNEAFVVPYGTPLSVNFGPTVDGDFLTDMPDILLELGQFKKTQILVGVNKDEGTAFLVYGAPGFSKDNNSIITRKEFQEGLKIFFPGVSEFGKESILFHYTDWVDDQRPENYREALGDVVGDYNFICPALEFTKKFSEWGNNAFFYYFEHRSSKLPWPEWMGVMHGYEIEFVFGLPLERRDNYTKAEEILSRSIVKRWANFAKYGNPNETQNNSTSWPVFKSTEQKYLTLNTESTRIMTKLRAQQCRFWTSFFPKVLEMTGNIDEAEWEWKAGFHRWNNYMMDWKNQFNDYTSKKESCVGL
T2 sequence (P22303 whole entry): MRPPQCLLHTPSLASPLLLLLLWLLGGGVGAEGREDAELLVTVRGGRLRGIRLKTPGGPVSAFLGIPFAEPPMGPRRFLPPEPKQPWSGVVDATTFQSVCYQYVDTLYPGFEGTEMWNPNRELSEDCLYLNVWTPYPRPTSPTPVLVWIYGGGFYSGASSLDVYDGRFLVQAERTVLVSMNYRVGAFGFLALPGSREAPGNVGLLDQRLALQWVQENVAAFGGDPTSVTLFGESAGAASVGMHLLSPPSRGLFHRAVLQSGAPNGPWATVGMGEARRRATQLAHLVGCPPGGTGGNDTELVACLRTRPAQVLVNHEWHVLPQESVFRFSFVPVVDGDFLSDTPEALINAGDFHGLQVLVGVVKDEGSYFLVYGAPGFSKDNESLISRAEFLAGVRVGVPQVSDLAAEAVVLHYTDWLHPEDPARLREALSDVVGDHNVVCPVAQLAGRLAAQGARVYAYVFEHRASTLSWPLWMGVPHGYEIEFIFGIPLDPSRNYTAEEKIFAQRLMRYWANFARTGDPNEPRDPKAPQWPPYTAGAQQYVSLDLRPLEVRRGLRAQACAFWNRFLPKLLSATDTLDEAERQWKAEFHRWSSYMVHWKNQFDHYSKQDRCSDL
T3 sequence (P81908 whole entry): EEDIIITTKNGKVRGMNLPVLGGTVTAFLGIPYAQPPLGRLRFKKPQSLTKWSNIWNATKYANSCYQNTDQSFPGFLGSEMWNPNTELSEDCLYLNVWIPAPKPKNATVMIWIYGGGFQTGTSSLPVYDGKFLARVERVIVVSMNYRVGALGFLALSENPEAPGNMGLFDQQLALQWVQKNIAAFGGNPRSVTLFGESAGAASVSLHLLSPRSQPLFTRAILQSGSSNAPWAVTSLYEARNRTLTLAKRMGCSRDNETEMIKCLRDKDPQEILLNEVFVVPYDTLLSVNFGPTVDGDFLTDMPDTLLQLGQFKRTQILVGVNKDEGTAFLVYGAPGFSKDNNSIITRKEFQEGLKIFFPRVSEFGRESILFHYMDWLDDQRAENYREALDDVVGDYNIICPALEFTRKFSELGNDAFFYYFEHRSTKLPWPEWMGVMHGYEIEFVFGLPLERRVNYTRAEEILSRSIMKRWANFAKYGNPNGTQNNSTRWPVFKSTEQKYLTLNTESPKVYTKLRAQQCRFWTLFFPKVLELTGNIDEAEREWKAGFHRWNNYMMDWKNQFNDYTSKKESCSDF
T4 sequence (O42275 whole entry): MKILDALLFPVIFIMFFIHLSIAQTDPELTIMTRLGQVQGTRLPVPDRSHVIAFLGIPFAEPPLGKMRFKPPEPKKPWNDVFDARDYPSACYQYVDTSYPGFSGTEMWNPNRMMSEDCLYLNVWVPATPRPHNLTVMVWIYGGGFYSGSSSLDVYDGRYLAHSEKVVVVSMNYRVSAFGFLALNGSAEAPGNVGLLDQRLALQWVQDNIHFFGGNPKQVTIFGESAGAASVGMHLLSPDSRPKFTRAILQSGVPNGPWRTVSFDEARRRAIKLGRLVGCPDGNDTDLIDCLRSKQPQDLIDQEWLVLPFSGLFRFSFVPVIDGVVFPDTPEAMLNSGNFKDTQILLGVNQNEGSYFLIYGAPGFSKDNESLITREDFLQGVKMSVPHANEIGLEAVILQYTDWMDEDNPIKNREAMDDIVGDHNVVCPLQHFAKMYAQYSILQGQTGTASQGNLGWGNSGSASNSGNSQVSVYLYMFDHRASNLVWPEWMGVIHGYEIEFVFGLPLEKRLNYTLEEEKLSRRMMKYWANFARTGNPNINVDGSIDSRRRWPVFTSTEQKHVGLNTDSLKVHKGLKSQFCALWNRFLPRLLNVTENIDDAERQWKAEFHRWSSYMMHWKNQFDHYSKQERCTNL
Sequence of Cholinesterases; ACHE & BCHE (Homo sapiens) (P06276 whole entry, looked up): as the sequence (P06276 whole entry) above
Sequence of Cholinesterases; ACHE & BCHE (Homo sapiens) (P22303 whole entry, looked up): as the sequence (P22303 whole entry) above

SMILES: CCNC(=S)N/N=C/c1c(OC)cc(OC)c2c(-c3ccccc3)c[nH]c12
- IC50 [1]: 1.95 µM
- IC50 [2]: 59.4 µM

SMILES: C/C(NCCCCNc1c2c(nc3ccccc13)CCCC2)=C(/N=N/c1ccc(C)cc1)C(=O)c1ccccc1
- IC50 [3]: 0.35 µM

SMILES: O=C(CNCCCCNCC(=O)Nc1c2c(nc3c1CCC3)CCCC2)Nc1c2c(nc3c1CCC3)CCCC2
- Ratio IC50 [4]: 22

SMILES: COc1cccc(C(=O)OCc2ccccc2)c1OC(=O)N(C)OC
- IC50 [5]: 0.99 µM
- IC50 [6]: > 100 µM
- inhibition [7]: 50%

SMILES: Nc1c2c(nc3ccccc13)CCC2
- IC50 [8]: 4.4 µM
- IC50 [5]: 0.27 µM

SMILES: CCN(CC)Cc1ccccc1CNC(=O)c1cccc(NC(=O)c2cccc(C(=O)NO)c2)c1
- IC50 [9]: 0.071 µM
- IC50 [10]: 0.0018 µM

SMILES: CN(C)C(=O)Oc1ccc(C(=O)C2CCC(Cc3ccccc3)CC2)c(OC(=O)N(C)C)c1 (stereo not given)
- IC50 [5]: 0.53 µM
- IC50 [6]: 7.8 µM

SMILES: COc1cccc(NC(=O)CN(C)[C@@H](C)C(=O)c2c[nH]c3ccccc23)c1
- IC50 [1]: 4.24 µM
- IC50 [2]: > 100 µM

SMILES: CCc1[nH]c2ccccc2c1CCN1CCC[C@H](CC)C1
- IC50 [1]: 0.65 µM
- IC50 [2]: > 100 µM

SMILES: COc1cc(CNCCCNc2c3c(nc4ccccc24)CCCCC3)ccc1O
- IC50 [11]: 3.01 µM
- IC50 [12]: 0.357 µM

SMILES: CCN(CC)C(=O)c1ccc2c(c1)nc(Cc1ccc(OC(=O)N3CCC3)cc1)n2CCC(C)C
- Ratio IC50 [13]: 10
- IC50 [1]: 0.006 µM

SMILES: O=C(/C=C/c1ccccc1Cl)c1cc2ccccc2oc1=O
- IC50 [14]: > 40 µM
- IC50 [15]: 0.51 µM
- IC50 [16]: 7 µM

SMILES: c1ccc(CN2CCC(NCCCCCCn3c4ccccc4c4ccccc43)CC2)cc1
- IC50 [5]: 0.18 µM
- IC50 [6]: 26.5 µM

SMILES: O=C(NCCCCCCCCNc1c2c(nc3ccccc13)CCCC2)c1ccccc1O
- IC50 [17]: 0.01 µM

SMILES: CC(C)N(Cc1ccccc1)C(=O)/C=C/C=C/c1ccc2c(c1)OCO2
- IC50 [18]: > 1000 µM
- IC50 [19]: 4.6 µM

SMILES: CCC(=O)N(CC(=O)Nc1ccccc1C)Cc1ccccc1
- IC50 [18]: > 1610 µM
- IC50 [19]: 25.9 µM

SMILES: CCN(CC)Cc1ccccc1CNC(=O)c1cccc(NC(=O)c2cccc(NC(=O)CCCCCCC(=O)NO)c2)c1
- IC50 [9]: 0.0089 µM
- IC50 [10]: 0.004 µM

SMILES: Cc1ccc(-c2nc3cc(C(=O)NNc4ccc(Br)cc4)ccc3[nH]2)cc1
- IC50 [20]: > 100 µM
- IC50 [21]: 1.46 µM
